In patent publication US20190290675A1, “GLYCAN POLYMERS AND RELATED METHODS THEREOF” (priority 2016, published 2019):

Key:
Experiment in all cases: single strain growth assay, enzymatically synthesized glycans and parent sugars
Type in all cases: cell-based
Details in all cases: 0.5% w/v, 37° C., 18-48 hours, anaerobic; OD600 blanked against no glycan or sugar
[1] = system: Dorea longicatena DSM 13814 “DLO.76”
Experimental: (§1) An in vitro assay was performed to assess the ability of various bacterial strains, including commensals and pathogens of the gastrointestinal tract, to utilize enzymatically synthesized glycans (i.e., glycan polymers) and the sugars from which they were derived as growth substrates. The assay was designed to determine if enzymatically synthesized glycans differ from the sugars from which they are derived in how well they support growth of potentially beneficial or harmful bacterial members of the human microbiome. Bacterial strains were handled at all steps in an anaerobic chamber (AS-580, Anaerobe Systems) featuring a palladium catalyst. The chamber was initially made anaerobic by purging with an anaerobic gas mixture of 5% hydrogen, 5% carbon dioxide and 90% nitrogen and subsequently maintained in an anaerobic state using this same anaerobic gas mixture. Anaerobicity of the chamber was confirmed daily using Oxoid anaerobic indicator strips that change color in the presence of oxygen. All culture media, assay plates, other reagents and plastic consumables were pre-reduced in the anaerobic chamber for at least 24-48 hours prior to contact with bacteria. […] Bacterial isolates were obtained from the American Type Culture Collection (ATCC) and Leibniz Institute DSMZ-German Institute of Microorganisms and Cell Cultures (DSMZ). […] Inocula were prepared by determining the optical density of each culture at 600 nM (OD600) in a Costar 3370 polystyrene 96-well flat-bottom assay plate using a Biotek Synergy 2 plate reader with Gen5 2.0 All-In-One Microplate Reader Software according to manufacturer's protocol, and diluting the cells to OD600 0.01 final in defined and semi-defined media that were prepared without sugars. […]

[2] = system: Blautia hansenii ATCC 27752 “BHA.20”
Experimental: An in vitro assay was performed to assess the ability of various bacterial strains, including commensals and pathogens of the gastrointestinal tract, to utilize enzymatically synthesized glycans (i.e., glycan polymers) and the sugars from which they were derived as growth substrates. The assay was designed to determine if enzymatically synthesized glycans differ from the sugars from which they are derived in how well they support growth of potentially beneficial or harmful bacterial members of the human microbiome. Bacterial strains were handled at all steps in an anaerobic chamber (AS-580, Anaerobe Systems) featuring a palladium catalyst. The chamber was initially made anaerobic by purging with an anaerobic gas mixture of 5% hydrogen, 5% carbon dioxide and 90% nitrogen and subsequently maintained in an anaerobic state using this same anaerobic gas mixture. Anaerobicity of the chamber was confirmed daily using Oxoid anaerobic indicator strips that change color in the presence of oxygen. All culture media, assay plates, other reagents and plastic consumables were pre-reduced in the anaerobic chamber for at least 24-48 hours prior to contact with bacteria. […] Inocula were prepared by determining the optical density of each culture at 600 nM (OD600) in a Costar 3370 polystyrene 96-well flat-bottom assay plate using a Biotek Synergy 2 plate reader with Gen5 2.0 All-In-One Microplate Reader Software according to manufacturer's protocol, and diluting the cells to OD600 0.01 final in defined and semi-defined media that were prepared without sugars. […]

[3] = system: Clostridium scindens ATCC 35704 “CSC.32”
Experimental: as §1

[4] = system: Dorea formicigenerans ATCC 27755 “DFO.36”
Experimental: as §1

[5] = system: Parabacteroides distasonis ATCC 8503 “PDI.6”
Experimental: as §1

[6] = system: Bacteroides thetaiotaomicron ATCC 29741 “BTH.8”
Experimental: as §1

## OC[C@H]1O[C@@H](O[C@@H]2[C@@H](CO)OC(O)(CO)[C@H]2O)[C@H](O)[C@@H](O)[C@H]1O (mixture of isomers) [lactulose]
[1]
  Growth, DLO.76: − (<0.1)
[2]
  Growth, BHA.20: +++ (>0.7)
[3]
  Growth, CSC.32: − (<0.1)
[4]
  Growth, DFO.36: − (<0.1)
[5]
  Growth, PDI.6: ++ (0.3-0.7)
[6]
  Growth, BTH.8: + (0.1-0.3)

## OC[C@H]1O[C@H](OC[C@H]2O[C@H](O[C@]3(CO)O[C@H](CO)[C@@H](O)[C@@H]3O)[C@H](O)[C@@H](O)[C@@H]2O)[C@H](O)[C@@H](O)[C@H]1O [raffinose]
[1]
  Growth, DLO.76: − (<0.1)
[2]
  Growth, BHA.20: ++ (0.3-0.7)
[3]
  Growth, CSC.32: − (<0.1)
[4]
  Growth, DFO.36: − (<0.1)
[5]
  Growth, PDI.6: +++ (>0.7)
[6]
  Growth, BTH.8: − (<0.1)

## OC[C@H]1O[C@@](CO)(O[C@H]2O[C@H](CO)[C@@H](O)[C@H](O)[C@H]2O)[C@@H](O)[C@@H]1O [sucrose]
[1]
  Growth, DLO.76: +++ (>0.7)
[2]
  Growth, BHA.20: − (<0.1)
[3]
  Growth, CSC.32: − (<0.1)
[4]
  Growth, DFO.36: − (<0.1)
[5]
  Growth, PDI.6: ++ (0.3-0.7)
[6]
  Growth, BTH.8: +++ (>0.7)
